Drawing on patent US20190134005A1 (BioMarin Pharmaceutical Inc., priority 2016, published 2019), this text covers IC50 for 34 compounds.

Molecules are shown by their SMILES. Bounds are passed on as bounds.

The first assay deals with T1, human CGT (Homo sapiens, UniProt Q16880).
T1 sequence (Q16880 21-541): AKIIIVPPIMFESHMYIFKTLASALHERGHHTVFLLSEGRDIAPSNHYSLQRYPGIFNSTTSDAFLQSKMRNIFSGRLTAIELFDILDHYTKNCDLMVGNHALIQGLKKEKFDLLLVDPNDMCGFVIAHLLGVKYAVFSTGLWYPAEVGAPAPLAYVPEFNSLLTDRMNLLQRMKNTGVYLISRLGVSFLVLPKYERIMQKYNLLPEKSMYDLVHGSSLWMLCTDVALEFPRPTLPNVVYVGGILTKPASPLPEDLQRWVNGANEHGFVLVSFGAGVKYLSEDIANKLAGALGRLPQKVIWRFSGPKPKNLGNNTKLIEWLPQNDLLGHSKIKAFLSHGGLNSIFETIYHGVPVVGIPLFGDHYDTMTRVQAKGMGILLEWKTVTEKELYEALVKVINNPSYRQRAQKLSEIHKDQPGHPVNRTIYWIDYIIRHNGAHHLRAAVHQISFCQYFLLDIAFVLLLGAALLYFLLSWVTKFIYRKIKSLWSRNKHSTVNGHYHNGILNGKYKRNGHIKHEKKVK
Nature of the assay: Assay 1: CGT Enzymatic Assay (RapidFire/MS/MS, 0.01% Tween 80). The assay is classed as biochemical. The conditions noted are these: Table 1, Compounds of Formula (I) and Formula (II); CGT enzymatic assay, C6-NBD-dihydro-galactosylceramide readout; read-out: IC50.
Regarding `CCc1ccc(N2C(=O)N(c3ccc(C#N)cc3)C3(COC3)C2(O)c2cccc(OC(F)(F)F)c2)cc1` (stereo not shown) [Example 337, 4-(7-(4-ethylphenyl)-8-hydroxy-6-oxo-8-(3-(trifluoromethoxy)phenyl)-2-oxa-5,7-diazaspiro[3.4]octan-5-yl)benzonitrile], the IC50 is less than 1 µM.
For `Cc1ccc(N2C(=O)N(c3ccc(C)cc3)C(O)(c3cccc(C(F)F)c3)C23COC3)cc1` (stereo not shown) [Compound 285, 8-(3-(difluoromethyl)phenyl)-8-hydroxy-5,7-di-p-tolyl-2-oxa-5,7-diazaspiro[3.4]octan-6-one], the IC50 is less than 1 µM.
On the same count and under the same terms, with `N#Cc1cccc(C2(O)N(c3ccc(Cl)cc3)C(=O)N(c3ccc(Cl)cc3)C23CC(F)(F)C3)c1` (stereo not shown) [Compound 305, 3-(5,7-bis(4-chlorophenyl)-2,2-difluoro-8-hydroxy-6-oxo-5,7-diazaspiro[3.4]octan-8-yl)benzonitrile] the figure was less than 1 µM.
As to `C[C@@]1(C(F)(F)F)N(c2ccc(Cl)cc2)C(=O)N(c2ccc(Cl)cc2)C1(O)c1cc(C#N)cc(C#N)c1` (stereo partly drawn) [Example 331-2, 5-((5R)-1,3-bis(4-chlorophenyl)-4-hydroxy-5-methyl-2-oxo-5-(trifluoromethyl)imidazolidin-4-yl)isophthalonitrile], the IC50 is less than 1 µM.
`Cc1ccc(N2C(=O)N(c3ccc(C)cc3)C(O)(c3cccc(OC(F)(F)F)c3)C23COC3)cc1` (stereo not shown) [Compound 284, 8-hydroxy-5,7-di-p-tolyl-8-(3-(trifluoromethoxy)phenyl)-2-oxa-5,7-diazaspiro[3.4]octan-6-one]: the IC50 was less than 1 µM.

The same assay, now with this note: Table 1, Compounds of Formula (I) and Formula (II); CGT enzymatic assay; read-out: IC50.
On to `CCC[C@H]1N(c2ccc(Cl)cc2)C(=O)N(c2ccc(Cl)cc2)C1(O)c1cccc(C(F)(F)F)c1` (stereo partly drawn) [Compound 87-2, (5R)-1,3-bis(4-chlorophenyl)-4-hydroxy-5-propyl-4-(3-(trifluoromethyl)phenyl)imidazolidin-2-one], for which the IC50 was less than 1 µM.
Turning to `O=C1N(c2ccc(Cl)cc2)C(c2cccs2)C(O)(c2ccccc2)N1c1ccc(Cl)cc1` (stereo not shown) [Compound 109, 1,3-bis(4-chlorophenyl)-4-hydroxy-4-phenyl-5-(thiophen-2-yl)imidazolidin-2-one], the IC50 was 1 to 10 µM.
Consider `O=C1N(c2ccc(Cl)cc2)[C@@]2(CCOC2)[C@@](O)(c2cccc(OC(F)(F)F)c2)N1c1ccc(Cl)cc1` [Compound 234-4, (4S,5R)-1,3-bis(4-chlorophenyl)-4-hydroxy-4-(3-(trifluoromethoxy)phenyl)-7-oxa-1,3-diazaspiro[4.4]nonan-2-one], for which the IC50 is less than 1 µM.
Turning to `C[C@H]1N(c2ccc(Cl)cc2)C(=O)N(c2ccc(Cl)cc2)C1(O)c1cccc(C#N)c1` (single isomer, unassigned) [Compound 99-2], the IC50 is less than 1 µM.
In the case of `C#Cc1cccc(C2(O)CN(c3ccc(Cl)cc3)C(=O)N2c2ccc(Cl)cc2)c1` (stereo not shown) [Compound 60, 1,3-bis(4-chlorophenyl)-4-(3-ethynylphenyl)-4-hydroxyimidazolidin-2-one], the IC50 is less than 1 µM.
`CC[C@@H]1N(c2ccc(Cl)cc2)C(=O)N(c2ccc(Cl)cc2)C1(O)c1cccc(C#N)c1` (single isomer, unassigned) [Compound 106-1]: the IC50 is less than 1 µM.
As for `O=c1n(-c2ccc(Br)cc2)c2c(n1-c1ccc(Br)cc1)CCCC2` [Example 18], the IC50 lay in the range of 10 to 50 µM.
`O=C1N(c2ccc(Cl)cc2)C(C2CC2)C(O)(c2cccc(OC(F)F)c2)N1c1ccc(Cl)cc1` (stereo not shown) [Compound 233, 1,3-bis(4-chlorophenyl)-5-cyclopropyl-4-(3-(difluoromethoxy)phenyl)-4-hydroxyimidazolidin-2-one]: the IC50 is less than 1 µM.
`CC(C)c1c(-c2cccc(C#N)c2)n(-c2ccc(Br)cc2)c(=O)n1-c1ccc(Br)cc1` [Example 46, 3-(1,3-bis(4-bromophenyl)-5-isopropyl-2-oxo-2,3-dihydro-1H-imidazol-4-yl)benzonitrile]: the IC50 is less than 1 µM.
As for `O=C1N(c2ccc(Cl)cc2)CC(O)(c2ccccc2)N1c1ccc(Cl)cc1` (stereo not shown) [Example 12, 1,3-bis(4-chlorophenyl)-4-hydroxy-4-phenylimidazolidin-2-one], the IC50 lay in the range of 1 to 10 µM.
For `O=c1n(-c2ccc(Br)cc2)c(-c2ccccc2)c(C2CC2)n1-c1ccc(Br)cc1` [Compound 249, 1,3-bis(4-bromophenyl)-4-cyclopropyl-5-phenyl-1,3-dihydro-2H-imidazol-2-one], the IC50 was less than 1 µM.
Consider `O=C1N(c2ccc(Br)cc2)CC(O)(c2cccs2)N1c1ccc(Br)cc1` (stereo not shown) [Example 7, 1,3-bis(4-bromophenyl)-4-hydroxy-4-(thiophen-2-yl)imidazolidin-2-one], for which the IC50 was 1 to 10 µM.
As for `Cc1cccc(-c2c(C)n(-c3ccc(Cl)cc3)c(=O)n2-c2ccc(Cl)cc2)c1` [Compound 260, 1,3-bis(4-chlorophenyl)-4-methyl-5-(m-tolyl)-1,3-dihydro-2H-imidazol-2-one], the IC50 fell in the range of 1 to 10 µM.
In the case of `O=C1N(c2ccc(Br)cc2)C(=O)C(O)(c2cc3ccccc3s2)N1c1ccc(Br)cc1` (stereo not shown) [Example 214, 5-(benzo[b]thiophen-2-yl)-1,3-bis(4-bromophenyl)-5-hydroxyimidazolidine-2,4-dione], the IC50 lay in the range of 10 to 50 µM.
Turning to `COc1ccc(C2(O)C(=O)N(c3ccc(Br)cc3)C(=O)N2c2ccc(Br)cc2)nc1` (stereo not shown) [Example 208, 1,3-bis(4-bromophenyl)-5-hydroxy-5-(5-methoxypyridin-2-yl)imidazolidine-2,4-dione], the IC50 lay within 50 to 100 µM.
For `Cc1cccc(N2C(=O)N(c3cccc(C)c3)C(O)(c3cccc(OC(F)(F)F)c3)C2C)c1` (stereo not shown) [Compound 107, 4-hydroxy-5-methyl-1,3-di-m-tolyl-4-(3-(trifluoromethoxy)phenyl)imidazolidin-2-one], the IC50 was less than 1 µM.
Turning to `CCc1c(-c2ccccc2)n(-c2ccc(Br)cc2)c(=O)n1-c1ccc(Br)cc1` [Compound 264, 1,3-bis(4-bromophenyl)-4-ethyl-5-phenyl-1,3-dihydro-2H-imidazol-2-one], the IC50 is less than 1 µM.
Regarding `CCC1N(c2ccc(Cl)cc2)C(=O)N(c2ccc(Cl)cc2)C1(O)c1cccc(OC(F)(F)F)c1` (stereo in doubt) [Compound 82-2, (5R)-1,3-bis(4-chlorophenyl)-5-ethyl-4-hydroxy-4-(3-(trifluoromethoxy)phenyl)imidazolidin-2-one], the concentration for half-maximal inhibition (IC50) is less than 1 µM.
For the compound `CC(C)C1(c2cccc(C#N)c2)C(O)N(c2ccc(Cl)cc2)C(=O)N1c1ccc(Cl)cc1` (stereo not shown) [Example 231, 3-(1,3-bis(4-chlorophenyl)-5-hydroxy-4-isopropyl-2-oxoimidazolidin-4-yl)benzonitrile], the IC50 is 1 to 10 µM.
On the same count and under the same terms, to `Cc1cccc(C2(O)[C@H](C)N(c3ccc(Cl)cc3)C(=O)N2c2ccc(Cl)cc2)c1` (stereo partly shown) [Example 36-1] belongs less than 1 µM; to `CCCC1N(c2ccc(Cl)cc2)C(=O)N(c2ccc(Cl)cc2)C1(O)c1cccc(C(F)(F)F)c1` (stereo not shown) [Compound 87, 1,3-bis(4-chlorophenyl)-4-hydroxy-5-propyl-4-(3-(trifluoromethyl)phenyl)imidazolidin-2-one], less than 1 µM.
Same read-out and setting: to `Cc1c(-c2cccc(OC(F)(F)F)c2)n(-c2ccc(Br)cc2)c(=O)n1-c1ccc(Br)cc1` [Compound 262, 1,3-bis(4-bromophenyl)-4-methyl-5-(3-(trifluoromethoxy)phenyl)-1,3-dihydro-2H-imidazol-2-one] belongs 1 to 10 µM; to `CCC[C@H]1N(c2ccc(Br)cc2)C(=O)N(c2ccc(Br)cc2)C1(O)c1cccc(OC(F)(F)F)c1` (stereo partly drawn) [Compound 112-2, (5R)-1,3-bis(4-bromophenyl)-4-hydroxy-5-propyl-4-(3-(trifluoromethoxy)phenyl)imidazolidin-2-one], less than 1 µM; to `O=C1N(c2ccc(Br)cc2)C(=O)C(O)(c2ccc(-c3ccc(F)cc3)cc2)N1c1ccc(Br)cc1` (stereo not shown) [Example 178, 1,3-bis(4-bromophenyl)-5-(4′-fluoro-[1,1′-biphenyl]-4-yl)-5-hydroxyimidazolidine-2,4-dione], more than 50 µM.
Same read-out and setting: with `CCCC[C@H]1N(c2ccc(Cl)cc2)C(=O)N(c2ccc(Cl)cc2)C1(O)c1cccc(C#N)c1` (stereo partly drawn) [Compound 116-2, 3-((5R)-5-butyl-1,3-bis(4-chlorophenyl)-4-hydroxy-2-oxoimidazolidin-4-yl)benzonitrile] the figure was less than 1 µM.
Consider `N#Cc1cc(Cl)cc(C2(O)CN(c3ccc(Br)cc3)C(=O)N2c2ccc(Br)cc2)c1` (stereo not shown) [Compound 113, 3-(1,3-bis(4-bromophenyl)-4-hydroxy-2-oxoimidazolidin-4-yl)-5-chlorobenzonitrile], for which the IC50 is 1 to 10 µM.
Regarding `O=C1N(c2ccc(Cl)cc2F)C(=O)C(O)(c2ccccc2)N1c1ccc(Cl)cc1F` (stereo not shown) [Compound 155, 1,3-bis(4-chloro-2-fluorophenyl)-5-hydroxy-5-phenylimidazolidine-2,4-dione], the IC50 is more than 50 µM.
For `C[C@@]1(c2cccc(C(F)(F)F)c2)C(O)N(c2ccc(Cl)cc2)C(=O)N1c1ccc(Cl)cc1` (stereo partly drawn) [Example 190-2, (4R)-1,3-bis(4-chlorophenyl)-5-hydroxy-4-methyl-4-(3-(trifluoromethyl)phenyl)imidazolidin-2-one], the IC50 was less than 1 µM.
Regarding `CC(C)(C)c1cccc(C2(O)CN(c3ccc(Cl)cc3)C(=O)N2c2ccc(Cl)cc2)c1` (stereo not shown) [Compound 128, 4-(3-(tert-butyl)phenyl)-1,3-bis(4-chlorophenyl)-4-hydroxyimidazolidin-2-one], the IC50 was in the range of 10 to 50 µM.

A word on the IC50: it is the concentration at which inhibition is half-maximal.
